Experimental data: patent US20030100024A1, “Method and apparatus for high throughput cell-based assays for screening and diagnostics” (priority 2000, published 2003)

Test system: PC12 cells
Test: neurite outgrowth from PC12 cells measured by laser scanning line amplitudes
Assay type: cell-based
Details: NGF added, after six days, FIG. 5
Description: The method of the invention was applied to the measurement of neurite outgrowth from PC12 cells. The neurites are much smaller than the cells and the laser beam, being only one micron in diameter in some cases. […] The extent of differentiation can be measured by considering the characteristic gaussian fit, multi-peaks ratio, sample width and number of inflections of the line amplitudes of the two populations. Any combination of these measurements from the line amplitudes may be used as a quantitative measure of differentiation.
If the line-to-line spacing of the scan is sufficiently small it is also possible to produce a representation of each cell in 3D (FIG. 6). This provides confirmation of the ability of the method to characterise differentiation.

Substance: nerve growth factor [NGF]
- differentiation (neurite outgrowth) of the cell population: the majority differentiated with neurite outgrowths
